Reference: patent US11718592B2, “Oxadiazole derivative” (Sumitomo Pharma Co., Ltd., priority 2020, dated 2023)
Where two headings read alike, the source gives them in different places. Marks after values point to notes of the source that are not given here.

Legend:
[1] = tested on: Slc: ddy male mice; conditions: mouse, in vivo, po, 1 h
[2] = tested on: ddY male mice; test: Test with model produced by subcutaneous injection of pentetrazol (minimum convulsion model, scPTZ); assay type: in vivo; conditions: 25 mg/kg oral administration
Description: In order to evaluate an antiepileptic drug, in general, a model produced by subcutaneous injection of pentetrazol (minimum convulsion model, scPTZ) is used, which has high clinical predictability. […] In this test, an animal model which expresses generalized absence seizure or myoclonic seizure was used. Test compounds were orally administered to Sic: ddY male mice (purchased from Japan SLC, Inc., 5 mice in each group, body weight 20-30 g). After an hour, pentetrazol (85 mg/kg) was subcutaneously administered. […] To control mice, 0.5% methylcellulose solution was administered, and the same test was done. The results are represented as the number of mice with no convulsion, per 5 mice. The present test was deemed to succeed when 4 mice among 5 mice in the control group developed convulsions.

[3] = tested on: BALB/c-Scn1a<+/−> mice; test: Anticonvulsant effect in mouse model of Dravet syndrome with febrile seizures; assay type: in vivo; conditions: oral; for Difference of the threshold temperature of convulsion from that of the control group: at the dose for anticonvulsive effect, hyperthermia 50 minutes after dosing; for Dose for anticonvulsive effect: dose needed to raise the threshold body temperature for inducing febrile seizures significantly compared with the control group
Text: This is a test for evaluating the anticonvulsant effect for febrile seizures of the test compounds in a mouse model of Dravet syndrome. In this test, BALB/c-Scn1a<+/−> mice were used (catalog number: RBRC06422; they are available from RIKEN BioResource Research Center via the National BioResource Project). The present mouse model having a mutation in a responsible gene for Dravet syndrome, Scn1A, presents with symptoms similar to febrile seizures caused by hyperthermia which is a symptom in a patient suffering from Dravet syndrome, and can be used as an animal model of spontaneous Dravet syndrome (for reference: the Japan Epilepsy Research Foundation, Annual Report 2015: 26: 69-76). To male mice model of Dravet syndrome (one group: 5-8 mice, body weight: 20-30 g) were orally administered the test compound. 50 minutes later, the mice were put in a chamber warmed with hot bath to evoke hyperthermia, and observed about the development of febrile seizures. Immediately after febrile seizure was developed, the rectal temperature was measured and used as the threshold body temperature for inducing febrile seizures.

[4] = tested on: GABA(A) receptors; test: Evaluation of the potentiating effect on GABA(A) receptors (electrophysiology, GABA(A) receptor expressing cells); assay type: cell-based; conditions: for Inhibition rate to the increased electric current by adding flumazenil: 2 μM GABA and test compound with 10 μM flumazenil; for The potentiating effect on GABA(A) receptors EC20: concentration giving 20% increase of the current generated by 2 μM GABA
Description: Using GABA(A) receptor expressing cells prepared according to Guideline for Generation of Stable Cell Lines (website of Lonza Japan; Non-patent Literature 4), the present test is done for evaluating the potentiating effect of a drug on GABA(A) receptors based on the electric current raised by GABA. The GABA(A) receptor expressing cells were used in electrophysiological study, wherein the electric current was measured when 2 μM GABA solution and then a mixture of 2 μM GABA and the test compound were added to the cells. […] In addition, the electric current generated by a mixture of 2 μM GABA solution and the test compound with 10 μM flumazenil was measured, and the inhibition rate for the electric current by adding flumazenil was calculated compared to the electric current obtained in the absence of flumazenil.

[5] = tested on: male Wister strain rats; test: Antidepressant effect in rat forced swimming test; assay type: in vivo; conditions: for antidepressant effect / immobility time (in words): oral; for average rate of deceasing the immobility time per that of the control group: swim 5 minutes an hour later
Text: The present test can evaluate antidepressant effect of a drug. When a rat is thrown into a water bath from which the rat cannot escape to be made to swim, the rat takes on escape behavior in the beginning and then becomes immobile. Next day, when the rat is thrown into a water bath again, the immobility appears earlier than that of the first trial. The method can evaluate the antidepressant effect of a test compound by using the duration of the immobility time as an indicator of depressive behavior. A day before the test, male Wister strain rats (purchased from Charles River Laboratories Japan, body weight: 260-300 g) were made to swim in a water bath for 15 minutes. On the test day, the test compound was orally administered to the rats (10-12 rats in one group). An hour later, the rats were made to swim again for 5 minutes and each immobility time was measured. In the control group, 0.5% methylcellulose solution as the test compound was administered to the rats which were subjected to the same behavior test. The antidepressant effect was indicated by the average rate of deceasing the immobility time per that of the control group.

average of the five mice's walking time ([1]; 100 mg/kg) [s]	SMILES	average of the five mice's walking time ([1]; 25 mg/kg) [s]	average of the five mice's walking time ([1]; 50 mg/kg) [s]	animals exhibiting anticonvulsant action (in words) [2]	Difference of the threshold temperature of convulsion from that of the control group [3] [°C]	Dose for anticonvulsive effect [3] [mg/kg]	Inhibition rate to the increased electric current by adding flumazenil [4] [%]	The potentiating effect on GABA(A) receptors EC20 [4] [µM]	antidepressant effect / immobility time (in words) [5]	average rate of deceasing the immobility time per that of the control group ([5]; oral 3 mg/kg)	average rate of deceasing the immobility time per that of the control group ([5]; oral 10 mg/kg)	average rate of deceasing the immobility time per that of the control group ([5]; oral 30 mg/kg)
	CN1C(=O)CCC1c1nc(-c2ccc(F)cc2)no1 (stereo not shown) [Example 25, 5-[3-(4-Fluorophenyl)-1,2,4-oxadiazol-5-yl]-1-methylpyrrolidin-2-one]	180	144.8	more than half of the animals	0.3	12.5	12	16				
	CN1C(=O)CCC1c1nc(-c2ccc(Cl)cc2)no1 (stereo not shown) [Example 29, 5-[3-(4-chlorophenyl)-1,2,4-oxadiazol-5-yl]-1-methylpyrrolidin-2-one]	180	146.4		0.7	25	7	1.1	significantly decreased the immobility time	12.3	29.4*	
0	CN1C(=O)CC[C@H]1c1nc(-c2ccc(F)cc2)no1 (single isomer, unassigned) [Example 31]	180	53.2	more than half of the animals	0.3	12.5	<0	15				
180	CCC(CC)(C(N)=O)c1nc(-c2ccc(Cl)cc2)no1 [Example 11, 2-[3-(4-chlorophenyl)-1,2,4-oxadiazol-5-yl]-2-ethylbutanamide]			more than half of the animals				5.1				
180	CC(C)(C(N)=O)c1nnc(-c2ccc(Br)cc2)o1 [Example 16, 2-[5-(4-bromophenyl)-1,3,4-oxadiazol-2-yl]-2-methylpropanamide]			more than half of the animals				>300				
	CN1C(=O)CCC1c1nc(-c2ccc(Br)cc2)no1 (stereo not shown) [Example 30, 5-[3-(4-bromophenyl)-1,2,4-oxadiazol-5-yl]-1-methylpyrrolidin-2-one]		180	more than half of the animals								
	CN1C(=O)CCC1(C)c1nc(-c2ccc(F)cc2)no1 (stereo not shown) [Example 28, 5-[3-(4-fluorophenyl)-1,2,4-oxadiazol-5-yl]-1,5-dimethylpyrrolidin-2-one]		180	more than half of the animals			24	9.3				

SMILES	average of the five mice's walking time ([1]; 100 mg/kg) [s]	average of the five mice's walking time ([1]; 25 mg/kg) [s]	average of the five mice's walking time ([1]; 50 mg/kg) [s]	animals exhibiting anticonvulsant action (in words) [2]	Difference of the threshold temperature of convulsion from that of the control group [3] [°C]	Dose for anticonvulsive effect [3] [mg/kg]	Inhibition rate to the increased electric current by adding flumazenil [4] [%]	The potentiating effect on GABA(A) receptors EC20 [4] [µM]	antidepressant effect / immobility time (in words) [5]	average rate of deceasing the immobility time per that of the control group ([5]; oral 3 mg/kg)	average rate of deceasing the immobility time per that of the control group ([5]; oral 10 mg/kg)	average rate of deceasing the immobility time per that of the control group ([5]; oral 30 mg/kg)
CN1C(=O)CCC1c1nc(-c2ccc(F)cc2)no1 (single isomer, unassigned) [Example 32]	65.3		180		0.5	25	<0	3.6	significantly decreased the immobility time	25.3*	31.6*	58.9*
